Experimental data as given in ChEMBL document CHEMBL4270508, “1,3,5-Triazines: A promising scaffold for anticancer drugs development” (Eur J Med Chem, 2017).
In brackets after ≈: the same amount, converted by molar mass. One block for each compound: values may come before it.

Legend:
[1] = biological target: Ubiquitin-conjugating enzyme E2 B (Homo sapiens, UniProt P63146); assay: Inhibition of human recombinant Rad6B using ubiquitin and histone H2A and ubiquitin-activating enzyme E1 preincubated for 1 hr before ubiquitin and histone H2A addition by SDS-PAGE and immunoblotting analysis
Sequence of Ubiquitin-conjugating enzyme E2 B (P63146 whole entry): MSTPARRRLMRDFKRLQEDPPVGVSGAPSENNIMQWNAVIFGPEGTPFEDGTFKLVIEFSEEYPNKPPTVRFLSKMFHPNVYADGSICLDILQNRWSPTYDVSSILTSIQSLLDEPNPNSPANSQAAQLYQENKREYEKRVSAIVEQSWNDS

[2] = Inhibition of starfish oocytes CDK1/cyclin B using histone H1 and [gamma-33P]ATP incubated fro 30 mins by scintillation counting analysis; parameters: species or system Asteroidea
[3] = biological target: Cyclin-dependent kinase 5/CDK5 activator 1 (Homo sapiens, UniProt Q00535); assay: Inhibition of human recombinant CDK5/p25 using histone H1 and [gamma-33P]ATP incubated fro 30 mins by scintillation counting analysis; format: protein-complex assay
Sequence of Cyclin-dependent kinase 5/CDK5 activator 1 (Q00535 whole entry): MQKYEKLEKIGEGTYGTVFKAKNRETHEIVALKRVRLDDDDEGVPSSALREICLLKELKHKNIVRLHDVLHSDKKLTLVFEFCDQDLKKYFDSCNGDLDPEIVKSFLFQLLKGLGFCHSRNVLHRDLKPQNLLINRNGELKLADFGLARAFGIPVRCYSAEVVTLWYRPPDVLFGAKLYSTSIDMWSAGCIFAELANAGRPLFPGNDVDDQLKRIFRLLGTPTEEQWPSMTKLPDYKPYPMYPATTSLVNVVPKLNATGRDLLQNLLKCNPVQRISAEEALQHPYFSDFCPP
Sequence of Cyclin-dependent kinase 5/CDK5 activator 1 (Q15078 whole entry, further chain): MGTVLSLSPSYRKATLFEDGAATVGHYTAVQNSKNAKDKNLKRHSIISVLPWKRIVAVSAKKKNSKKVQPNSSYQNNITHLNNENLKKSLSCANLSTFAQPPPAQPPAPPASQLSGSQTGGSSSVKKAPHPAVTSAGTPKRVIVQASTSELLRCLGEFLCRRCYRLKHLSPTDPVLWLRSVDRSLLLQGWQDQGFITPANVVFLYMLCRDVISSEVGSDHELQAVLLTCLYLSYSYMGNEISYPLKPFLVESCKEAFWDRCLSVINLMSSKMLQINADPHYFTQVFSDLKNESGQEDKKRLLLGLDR

[4] = biological target: Cyclin-dependent kinase 7/ cyclin H (Homo sapiens, UniProt P50613); assay: Inhibition of human recombinant CDK7/cyclin H using histone H1 and [gamma-33P]ATP incubated fro 30 mins by scintillation counting analysis; format: protein-complex assay
Sequence of Cyclin-dependent kinase 7/ cyclin H (P51946 whole entry, the tested form may be a part): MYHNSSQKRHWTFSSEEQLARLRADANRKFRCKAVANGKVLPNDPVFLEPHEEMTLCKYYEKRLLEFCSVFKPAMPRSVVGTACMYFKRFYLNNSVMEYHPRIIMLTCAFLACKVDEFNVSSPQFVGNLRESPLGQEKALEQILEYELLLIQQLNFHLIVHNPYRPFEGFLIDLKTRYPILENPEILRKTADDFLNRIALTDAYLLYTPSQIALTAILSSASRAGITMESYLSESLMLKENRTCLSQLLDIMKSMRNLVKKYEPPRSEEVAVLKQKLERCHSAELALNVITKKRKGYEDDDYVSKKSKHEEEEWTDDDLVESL
Sequence of Cyclin-dependent kinase 7/ cyclin H (P50613 whole entry, the tested form may be a part): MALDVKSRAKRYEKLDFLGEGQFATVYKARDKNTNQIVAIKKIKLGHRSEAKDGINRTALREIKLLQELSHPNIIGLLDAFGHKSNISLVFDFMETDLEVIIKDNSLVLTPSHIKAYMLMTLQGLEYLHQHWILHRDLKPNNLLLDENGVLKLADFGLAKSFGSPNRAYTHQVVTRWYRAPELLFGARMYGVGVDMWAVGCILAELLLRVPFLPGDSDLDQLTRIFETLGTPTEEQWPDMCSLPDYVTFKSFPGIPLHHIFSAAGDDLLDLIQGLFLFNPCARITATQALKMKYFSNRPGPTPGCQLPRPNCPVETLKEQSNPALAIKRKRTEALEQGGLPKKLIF

[5] = biological target: CDK9/cyclin T1 (Homo sapiens, UniProt P50750); assay: Inhibition of human recombinant CDK9/cyclin T expressed in insect cells using pRb fragment (773 to 928 amino acids) and [gamma-33P]ATP incubated fro 30 mins by scintillation counting analysis
Sequence of CDK9/cyclin T1 (O60563 whole entry, the tested form may be a part): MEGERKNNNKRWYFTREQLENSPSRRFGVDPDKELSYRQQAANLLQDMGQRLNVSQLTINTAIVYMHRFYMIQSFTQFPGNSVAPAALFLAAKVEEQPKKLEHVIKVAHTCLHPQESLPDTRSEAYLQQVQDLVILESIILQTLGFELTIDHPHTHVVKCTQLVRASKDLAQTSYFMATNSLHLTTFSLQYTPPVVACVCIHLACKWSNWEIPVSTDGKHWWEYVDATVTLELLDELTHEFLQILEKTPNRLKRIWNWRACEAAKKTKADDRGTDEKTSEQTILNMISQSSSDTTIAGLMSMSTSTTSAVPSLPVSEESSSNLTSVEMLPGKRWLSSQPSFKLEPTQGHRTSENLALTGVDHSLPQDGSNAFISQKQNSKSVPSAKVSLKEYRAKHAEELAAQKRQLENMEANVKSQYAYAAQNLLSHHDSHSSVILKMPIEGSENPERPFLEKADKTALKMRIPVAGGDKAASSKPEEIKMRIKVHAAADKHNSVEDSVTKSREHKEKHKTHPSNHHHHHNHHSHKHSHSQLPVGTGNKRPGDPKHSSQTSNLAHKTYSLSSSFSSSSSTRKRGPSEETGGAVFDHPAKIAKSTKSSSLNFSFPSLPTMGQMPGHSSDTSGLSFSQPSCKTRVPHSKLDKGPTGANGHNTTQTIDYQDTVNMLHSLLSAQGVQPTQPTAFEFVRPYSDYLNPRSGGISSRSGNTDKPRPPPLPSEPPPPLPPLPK
Sequence of CDK9/cyclin T1 (P50750 whole entry, the tested form may be a part): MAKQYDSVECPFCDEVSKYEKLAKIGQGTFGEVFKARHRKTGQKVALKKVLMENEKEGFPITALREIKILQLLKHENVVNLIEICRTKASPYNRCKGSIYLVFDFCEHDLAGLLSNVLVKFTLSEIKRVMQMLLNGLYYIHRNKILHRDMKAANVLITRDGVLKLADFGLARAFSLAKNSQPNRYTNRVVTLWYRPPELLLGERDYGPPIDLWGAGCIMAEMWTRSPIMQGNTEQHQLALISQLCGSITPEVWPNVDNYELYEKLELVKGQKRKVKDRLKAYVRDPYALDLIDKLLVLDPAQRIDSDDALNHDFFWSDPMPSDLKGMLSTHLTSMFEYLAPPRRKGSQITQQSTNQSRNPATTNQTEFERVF

[6] = system: MCF7; assay: Antiproliferative activity in human MCF7 cells assessed as inhibition of cell proliferation; format: functional, cell-based
[7] = system: MDA-MB-231; assay: Antiproliferative activity in human MDA-MB-231 cells assessed as inhibition of cell proliferation; format: functional, cell-based
[8] = system: K562; assay: Cytotoxicity in human K562 cells assessed as reduction in cell viability incubated for 72 hrs by MTT assay; format: functional, cell-based; settings: K562, 72 h
[9] = system: PC-3; assay: Cytotoxicity in human PC3 cells assessed as reduction in cell viability incubated for 72 hrs by MTT assay; format: functional, cell-based; settings: PC-3, 72 h
[10] = Cytotoxicity in human HO8910 cells assessed as reduction in cell viability incubated for 72 hrs by MTT assay; format: functional, cell-based; settings: HO-8910, 72 h
[11] = Inhibition of rhodamine-labeled purified porcine brain tubulin polymerization in presence of GTP incubated for 30 mins by epifluorescence microscopy; parameters: species or system Sus scrofa
[12] = system: HT-29; assay: Anticancer activity against human HT-29 cells incubated for 48 hrs by MTT assay; format: functional, cell-based; settings: HT-29, 48 h
[13] = system: MCF7; assay: Anticancer activity against human MCF7 cells incubated for 48 hrs by MTT assay; format: functional, cell-based; settings: MCF7, 48 h
[14] = system: MDA-MB-231; assay: Anticancer activity against human MDA-MB-231 cells incubated for 48 hrs by MTT assay; format: functional, cell-based; settings: MDA-MB-231, 48 h
[15] = system: HGC-27; assay: Anticancer activity against human HGC27 cells incubated for 48 hrs by MTT assay; format: functional, cell-based; settings: HGC-27, 48 h
[16] = system: A549; assay: Antiproliferative activity in human A549 cells assessed as inhibition of cell proliferation by MTT assay; format: functional, cell-based
[17] = system: SK-BR-3; assay: Antiproliferative activity in human SK-BR-3 cells assessed as inhibition of cell proliferation by SRB/MTT assay; format: functional, cell-based
[18] = system: BT-474; assay: Antiproliferative activity in human BT474 cells assessed as inhibition of cell proliferation by SRB/MTT assay; format: functional, cell-based
[19] = system: A549; assay: Antiproliferative activity in human A549 cells assessed as inhibition of cell proliferation by SRB/MTT assay; format: functional, cell-based
[20] = system: K562; assay: Antiproliferative activity in human K562 cells assessed as inhibition of cell proliferation by SRB/MTT assay; format: functional, cell-based
[21] = system: HCT-116; assay: Antiproliferative activity in human HCT116 cells assessed as inhibition of cell proliferation by SRB/MTT assay; format: functional, cell-based
[22] = system: Panel NCI-60 (60 carcinoma cell lines); assay: Growth inhibition of human NCI60 cells incubated for 48 hrs by SRB assay; format: functional, cell-based
[23] = system: NCI-H460; assay: Antiproliferative activity in human NCI-H460 cells incubated for 72 hrs by MTT assay; format: functional, cell-based; settings: NCI-H460, 72 h
[24] = system: HT-29; assay: Antiproliferative activity in human HT-29 cells incubated for 72 hrs by MTT assay; format: functional, cell-based; settings: HT-29, 72 h
[25] = system: MDA-MB-231; assay: Antiproliferative activity in human MDA-MB-231 cells incubated for 72 hrs by MTT assay; format: functional, cell-based; settings: MDA-MB-231, 72 h
[26] = system: HepG2; assay: Anticancer activity against human HepG2 cells incubated for 48 hrs by SRB assay; format: functional, cell-based; settings: HepG2, 48 h
[27] = system: MCF7; assay: Anticancer activity against human MCF7 cells incubated for 48 hrs by SRB assay; format: functional, cell-based; settings: MCF7, 48 h
[28] = species: Homo sapiens; assay: Inhibition of PI3K in human A549 cell lysates assessed as remaining enzyme activity at 1 uM pre-incubated for 5 mins before [gamma-32P]ATP addition and further incubated for 20 mins by TLC and autoradiography relative to untreated control

IC50 [1]: 0.025 µM
Compound: Nc1nc(COC(=O)c2ccc([N+](=O)[O-])cc2)nc(Nc2ccccc2)n1

IC50 [3]: 0.043 to 0.5 µM
IC50 [4]: 0.043 to 0.5 µM
IC50 [5]: 0.043 to 0.5 µM
Compound: CC[C@H](CO)Nc1nc(NCc2ccccc2)n2ncc(C(C)C)c2n1
IC50 [2]: 0.043 to 0.5 µM

Compound: COc1nc(Nc2ccccc2)nc([N+]23CC[N+](CCCl)(CC2)CC3)n1
IC50 [6]: 12.3 µM
IC50 [7]: 40.3 to 112 µM

Compound: CCCCNc1nc(OC)nc([N+]23CC[N+](CCCl)(CC2)CC3)n1
IC50 [6]: 7.4 to 136 µM
IC50 [7]: 40.3 to 112 µM

Compound: O=C(O)CCCc1ccc(N(CCCl)CCCl)cc1 [CHLORAMBUCIL]
IC50 [6]: 29.1 µM

Compound: Cc1ccc(Nc2nc(-c3ccccc3)nc(N3CCNCC3)n2)cc1
IC50 [8]: 1.01 µM
IC50 [9]: 2.23 µM
IC50 [10]: 1.06 µM

Compound: COC(=O)[C@H](CO)Nc1nc(OC)nc([N+]23CC[N+](CCCl)(CC2)CC3)n1
IC50 [6]: 7.4 to 136 µM
IC50 [7]: 40.3 to 112 µM

IC50 [11]: 3.6 µM
Compound: COc1ccc(CNc2nc(NCc3ccc(OC)cc3)c3ncn(C(C)C)c3n2)cc1 [MYOSEVERIN]

IC50 [12]: 4.8 to 15.1 µM
IC50 [13]: 4.8 to 15.1 µM
IC50 [14]: 4.8 to 15.1 µM
Compound: c1ccc(Nc2nc(Nc3ccc(-c4nc5ccccc5[nH]4)cc3)nc(N3CCOCC3)n2)cc1
IC50 [15]: 4.8 to 15.1 µM

IC50 [16]: 6 µM
Compound: Cc1cc(=O)n2c(n1)N=C(N)NC2c1ccco1 (configuration not stated)

IC50 [17]: 8.9 µM
IC50 [18]: 7.1 µM
IC50 [19]: 7.5 µM
IC50 [20]: 8.6 µM
IC50 [21]: 6.7 µM
Compound: Cc1cc(C)n(-c2nc(N/N=C\c3c[nH]c4ccccc34)nc(Nc3ccc(Br)cc3)n2)n1

Compound: COC(=O)[C@H](C)Nc1nc(OC)nc([N+]23CC[N+](CCCl)(CC2)CC3)n1
IC50 [6]: 7.4 to 136 µM
IC50 [7]: 40.3 to 112 µM

Compound: Nc1nc2nc(-c3ccccc3)nc(-c3ccccc3)n2n1
IC50 [22]: 0.49 to 100 µM

Compound: COc1nc(Nc2ccc(C)cc2)nc([N+]23CC[N+](CCCl)(CC2)CC3)n1
IC50 [6]: 7.4 µM
IC50 [7]: 40.3 to 112 µM

Compound: COc1nc(N2CCCCC2)nc([N+]23CC[N+](CCCl)(CC2)CC3)n1
IC50 [6]: 7.4 to 136 µM
IC50 [7]: 40.3 to 112 µM

IC50 [23]: 0.75 µM
IC50 [24]: 0.34 µM
IC50 [25]: 0.6 µM
Compound: C=CCc1cc(C)cc(/C=N/NC(=O)Nc2nc(N3CCOCC3)nc(N3CCOCC3)n2)c1O

IC50 [26]: 3.7 µg/mL (≈ 1.74 µM)
IC50 [27]: 2.95 µg/mL (≈ 1.39 µM)
Compound: CCCCCCCCCCCCCCCCOC(=O)c1cc(C(=O)OCCCCCCCCCCCCCCCC)cc(-n2cc(-c3nc(-c4cn(-c5cc(C(=O)OCCCCCCCCCCCCCCCC)cc(C(=O)OCCCCCCCCCCCCCCCC)c5)nn4)nc(-c4cn(-c5cc(C(=O)OCCCCCCCCCCCCCCCC)cc(C(=O)OCCCCCCCCCCCCCCCC)c5)nn4)n3)nn2)c1

IC50 [23]: 0.05 µM
Compound: N#Cc1ccc(Cn2cc(/C=N/Nc3nc(N4CCOCC4)nc(N4CCOCC4)n3)c3ccccc32)cc1

Activity [28]: 4.7%
Compound: FC(F)c1nc2ccccc2n1-c1nc(N2CCOCC2)nc(N2CCOCC2)n1

Compound: COc1nc(N2CCOCC2)nc([N+]23CC[N+](CCCl)(CC2)CC3)n1
IC50 [6]: 7.4 to 136 µM
IC50 [7]: 40.3 to 112 µM

Compound: COC(=O)[C@H](Cc1ccccc1)Nc1nc(OC)nc([N+]23CC[N+](CCCl)(CC2)CC3)n1
IC50 [6]: 7.4 to 136 µM
IC50 [7]: 40.3 to 112 µM

Compound: COc1nc(NCc2ccccc2)nc([N+]23CC[N+](CCCl)(CC2)CC3)n1
IC50 [6]: 7.4 to 136 µM
IC50 [7]: 40.3 to 112 µM

IC50 [23]: 0.07 µM
Compound: Clc1ccc(Cn2cc(/C=N/Nc3nc(N4CCOCC4)nc(N4CCOCC4)n3)c3ccccc32)cc1Cl
